Assay results taken from paper PMC5218480 (PLoS ONE, 2017).

Test system: MV-4-11 cells
Experiment: Gene expression microarray analysis (Affymetrix PrimeView) and GSEA
Format: cell-based, human
Set-up: RFU PODN (11730768_x_at) / Fold change /veh PODN (11730768_x_at) / RFU LINC00158 (11744669_a_at) / Fold change /veh LINC00158 (11744669_a_at) / RFU DUSP10 (11751237_a_at) / Fold change /veh DUSP10 (11751237_a_at) / RFU ID3 (11757404_x_at) / Fold change /veh ID3 (11757404_x_at) / RFU PLEKHG5 (11737974_s_at) / Fold change /veh PLEKHG5 (11737974_s_at) / RFU LRRC4B (11730491_at) / Fold change /veh LRRC4B (11730491_at) / RFU GIMAP4 (11747438_a_at) / Fold change /veh GIMAP4 (11747438_a_at) / RFU KRT8 (11758183_x_at) / Fold change /veh KRT8 (11758183_x_at) / RFU CNN1 (11734310_a_at) / Fold change /veh CNN1 (11734310_a_at) / RFU VPS37D (11726825_at) / Fold change /veh VPS37D (11726825_at) / RFU C10orf10 (11716522_x_at) / Fold change /veh C10orf10 (11716522_x_at) / RFU KIR2DL2 /// KIR2DL4 /// KIR2DL5A /// KIR2DL5B /// KIR2DS1 /// KIR2DS2 /// KIR2DS3 /// KIR2DS4 /// KIR3DL3 /// KIR3DL3 /// KIR3DS1 (11738374_at) / Fold change /veh KIR2DL2 /// KIR2DL4 /// KIR2DL5A /// KIR2DL5B /// KIR2DS1 /// KIR2DS2 /// KIR2DS3 /// KIR2DS4 /// KIR3DL3 /// KIR3DL3 /// KIR3DS1 (11738374_at) / RFU C1QL1 (11718748_at) / Fold change /veh C1QL1 (11718748_at) / RFU TMPRSS4 (11747572_a_at) / Fold change /veh TMPRSS4 (11747572_a_at) / RFU HAMP (11756126_x_at) / Fold change /veh HAMP (11756126_x_at) / RFU RNFT2 (11725882_a_at) / Fold change /veh RNFT2 (11725882_a_at) / RFU NR4A2 (11747474_a_at) / Fold change /veh NR4A2 (11747474_a_at) / RFU ABCC12 (11746883_a_at) / Fold change /veh ABCC12 (11746883_a_at) / RFU TMEM136 (11760407_x_at) / Fold change /veh TMEM136 (11760407_x_at) / RFU CLDN22 /// WWC2 (11732394_at) / Fold change /veh CLDN22 /// WWC2 (11732394_at) / RFU HLA-DPB1 (11760878_x_at) / Fold change /veh HLA-DPB1 (11760878_x_at) / RFU SPINT1 (11716480_a_at) / Fold change /veh SPINT1 (11716480_a_at) / RFU GAP43 (11754022_s_at) / Fold change /veh GAP43 (11754022_s_at) / RFU A4GNT (11735810_at) / Fold change /veh A4GNT (11735810_at) / RFU PRB3 (11715151_x_at) / Fold change /veh PRB3 (11715151_x_at) / RFU TUBB4B (11761932_at) / Fold change /veh TUBB4B (11761932_at) / RFU CAPN14 (11732068_a_at) / Fold change /veh CAPN14 (11732068_a_at) / RFU TMCC2 (11721928_a_at) / Fold change /veh TMCC2 (11721928_a_at) / RFU IRGQ (11745062_a_at) / Fold change /veh IRGQ (11745062_a_at) / RFU FAM174B (11720279_a_at) / Fold change /veh FAM174B (11720279_a_at) / RFU TMPRSS4 (11748680_a_at) / Fold change /veh TMPRSS4 (11748680_a_at) / RFU FAM212B (11763350_a_at) / Fold change /veh FAM212B (11763350_a_at) / RFU PLEKHG5 (11743358_a_at) / Fold change /veh PLEKHG5 (11743358_a_at) / RFU ZSCAN30 (11745921_a_at) / Fold change /veh ZSCAN30 (11745921_a_at) / RFU CMKLR1 (11741424_a_at) / Fold change /veh CMKLR1 (11741424_a_at) / RFU LOC101060620 /// MAPK8IP1 (11723275_at) / Fold change /veh LOC101060620 /// MAPK8IP1 (11723275_at) / RFU SPTSSB (11747773_x_at) / Fold change /veh SPTSSB (11747773_x_at) / RFU PRSS12 (11739890_at) / Fold change /veh PRSS12 (11739890_at) / RFU BIN1 (11741810_x_at) / Fold change /veh BIN1 (11741810_x_at) / RFU WNT11 (11732464_a_at) / Fold change /veh WNT11 (11732464_a_at) / RFU C10orf10 (11716521_a_at) / Fold change /veh C10orf10 (11716521_a_at) / RFU C5orf56 (11738089_at) / Fold change /veh C5orf56 (11738089_at) / RFU CYB561 (11721691_x_at) / Fold change /veh CYB561 (11721691_x_at) / RFU ANKRD19P (11752326_a_at) / Fold change /veh ANKRD19P (11752326_a_at) / RFU OR2T12 /// OR2T33 /// OR2T8 (11738714_s_at) / Fold change /veh OR2T12 /// OR2T33 /// OR2T8 (11738714_s_at) / RFU VCAN (11748164_a_at) / Fold change /veh VCAN (11748164_a_at) / RFU JSRP1 (11732532_at) / Fold change /veh JSRP1 (11732532_at) / RFU KRTAP10-11 (11738290_x_at) / Fold change /veh KRTAP10-11 (11738290_x_at) / RFU MYO3A (11730013_a_at) / Fold change /veh MYO3A (11730013_a_at) / RFU EBF3 (11725865_a_at) / Fold change /veh EBF3 (11725865_a_at) / RFU CAMK2N1 (11719241_x_at) / Fold change /veh CAMK2N1 (11719241_x_at) / RFU C5orf56 (11738088_a_at) / Fold change /veh C5orf56 (11738088_a_at) / RFU OLFML3 (11715873_a_at) / Fold change /veh OLFML3 (11715873_a_at) / RFU LOC100653217 /// NTM (11731650_a_at) / Fold change /veh LOC100653217 /// NTM (11731650_a_at) / RFU MAPK11 (11762145_a_at) / Fold change /veh MAPK11 (11762145_a_at) / RFU FIZ1 (11724087_x_at) / Fold change /veh FIZ1 (11724087_x_at) / RFU OASL (11726364_x_at) / Fold change /veh OASL (11726364_x_at) / RFU SOX15 (11748057_x_at) / Fold change /veh SOX15 (11748057_x_at) / RFU CD79A (11719716_a_at) / Fold change /veh CD79A (11719716_a_at) / RFU HIST1H1D (11736915_at) / Fold change /veh HIST1H1D (11736915_at) / RFU CASKIN2 (11723855_a_at) / Fold change /veh CASKIN2 (11723855_a_at) / RFU LOC730098 (11760151_x_at) / Fold change /veh LOC730098 (11760151_x_at) / RFU OR4N2 (11742367_at) / Fold change /veh OR4N2 (11742367_at) / RFU PRRT2 (11749266_a_at) / Fold change /veh PRRT2 (11749266_a_at) / RFU SNX32 (11753110_a_at) / Fold change /veh SNX32 (11753110_a_at) / RFU CDHR5 (11726645_a_at) / Fold change /veh CDHR5 (11726645_a_at) / RFU RCAN1 (11760418_a_at) / Fold change /veh RCAN1 (11760418_a_at) / RFU FAM167A (11723789_a_at) / Fold change /veh FAM167A (11723789_a_at) / RFU FAM26E (11764081_at) / Fold change /veh FAM26E (11764081_at) / RFU ISYNA1 (11749810_s_at) / Fold change /veh ISYNA1 (11749810_s_at) / RFU ACY1 (11761880_at) / Fold change /veh ACY1 (11761880_at) / RFU 11764098_at / Fold change /veh 11764098_at / RFU SAMD14 (11745864_x_at) / Fold change /veh SAMD14 (11745864_x_at) / RFU NPB (11741838_a_at) / Fold change /veh NPB (11741838_a_at) / RFU TMPRSS6 (11731388_a_at) / Fold change /veh TMPRSS6 (11731388_a_at) / RFU KRTAP10-2 (11738614_at) / Fold change /veh KRTAP10-2 (11738614_at) / RFU ARHGAP8 /// PRR5-ARHGAP8 (11727945_x_at) / Fold change /veh ARHGAP8 /// PRR5-ARHGAP8 (11727945_x_at) / RFU KRTAP5-7 /// NADSYN1 (11734609_at) / Fold change /veh KRTAP5-7 /// NADSYN1 (11734609_at) / RFU RASL12 (11751679_a_at) / Fold change /veh RASL12 (11751679_a_at) / RFU CDKN2B (11736163_a_at) / Fold change /veh CDKN2B (11736163_a_at) / RFU PRF1 (11729649_at) / Fold change /veh PRF1 (11729649_at) / RFU, ZNF638 /// ZNF638-IT1 / Fold change vs veh, ZNF638 /// ZNF638-IT1 / RFU, PANK3 / Fold change vs veh, PANK3 / RFU, SH3YL1 / Fold change vs veh, SH3YL1 / RFU, ZEB2 / Fold change vs veh, ZEB2 / RFU, NRIP1 / Fold change vs veh, NRIP1 / RFU, PTTG1IP / Fold change vs veh, PTTG1IP / RFU, CAPN2 / Fold change vs veh, CAPN2 / RFU, MED14 / Fold change vs veh, MED14 / RFU, SNORA58 / Fold change vs veh, SNORA58 / RFU, C1orf63 / Fold change vs veh, C1orf63 / RFU, LRRFIP1 / Fold change vs veh, LRRFIP1 / RFU, NDUFAF7 / Fold change vs veh, NDUFAF7 / RFU, SLC12A2 / Fold change vs veh, SLC12A2 / RFU, IBTK / Fold change vs veh, IBTK / RFU, ESF1 / Fold change vs veh, ESF1 / Fold change vs veh, TMEM50B / RFU, TAOK1 / Fold change vs veh, TAOK1 / RFU, ACBD3 / Fold change vs veh, ACBD3 / RFU, TMA16 / Fold change vs veh, TMA16 / RFU, RWDD3 / Fold change vs veh, RWDD3 / RFU, BCAT1 / Fold change vs veh, BCAT1 / RFU, EDEM3 / Fold change vs veh, EDEM3 / RFU, TMEM33 / Fold change vs veh, TMEM33 / RFU, WDR75 / Fold change vs veh, WDR75 / RFU, AHCTF1 / Fold change vs veh, AHCTF1 / RFU, TFRC / Fold change vs veh, TFRC / RFU, ZDHHC17 / Fold change vs veh, ZDHHC17 / RFU, NOM1 / Fold change vs veh, NOM1 / RFU, ARL8B / Fold change vs veh, ARL8B / RFU, ZBTB11 / Fold change vs veh, ZBTB11 / RFU, TAMM41 / Fold change vs veh, TAMM41 / RFU, KIAA1704 /// LOC100996395 / Fold change vs veh, KIAA1704 /// LOC100996395 / RFU, ING1 / Fold change vs veh, ING1 / RFU, TRMT61B / Fold change vs veh, TRMT61B / RFU, FUBP3 / Fold change vs veh, FUBP3 / RFU, TP53 / Fold change vs veh, TP53 / RFU, TNKS2 / Fold change vs veh, TNKS2 / RFU, ZFP14 / Fold change vs veh, ZFP14 / RFU, ACTR2 / Fold change vs veh, ACTR2 / RFU, PPP3R1 / Fold change vs veh, PPP3R1 / RFU, PIK3R1 / Fold change vs veh, PIK3R1 / RFU, HNRNPA1 / Fold change vs veh, HNRNPA1 / RFU, RNF170 / Fold change vs veh, RNF170 / RFU, ZNF28 / Fold change vs veh, ZNF28 / RFU, RNGTT / Fold change vs veh, RNGTT / RFU, OGT / Fold change vs veh, OGT / RFU, BRD1 / Fold change vs veh, BRD1 / RFU, MARS / Fold change vs veh, MARS / RFU, ZNF655 / Fold change vs veh, ZNF655 / RFU, FAHD1 / Fold change vs veh, FAHD1 / RFU, BDP1 / Fold change vs veh, BDP1 / RFU, LRRCC1 / Fold change vs veh, LRRCC1 / RFU, ARID1A / Fold change vs veh, ARID1A / RFU, ZNF146 / Fold change vs veh, ZNF146 / RFU, ZNF330 / Fold change vs veh, ZNF330 / RFU, GPN3 / Fold change vs veh, GPN3 / RFU, C9orf123 / Fold change vs veh, C9orf123 / RFU, N4BP2L2 / Fold change vs veh, N4BP2L2 / RFU, ARFIP1 / Fold change vs veh, ARFIP1 / RFU, FAM179B / Fold change vs veh, FAM179B / RFU, BCL10 / Fold change vs veh, BCL10 / RFU, UHRF1BP1L / Fold change vs veh, UHRF1BP1L / RFU, BET1 / Fold change vs veh, BET1 / RFU, CNOT2 / Fold change vs veh, CNOT2 / RFU, ZNF268 / Fold change vs veh, ZNF268 / Fold change vs veh, ZNF507 / RFU, DGCR2 / Fold change vs veh, DGCR2 / RFU, WDSUB1 / Fold change vs veh, WDSUB1 / Fold change vs veh, HSP90B1 /// MIR3652 / RFU, ADSS / Fold change vs veh, ADSS / RFU, GK / Fold change vs veh, GK / RFU, ZNF148 / Fold change vs veh, ZNF148 / RFU, TAF9 / Fold change vs veh, TAF9 / RFU, SLC1A5 / Fold change vs veh, SLC1A5 / RFU, SLMO2 / Fold change vs veh, SLMO2 / RFU, ABCC4 / Fold change vs veh, ABCC4 / RFU, LOC101060439 /// RAP1B / Fold change vs veh, LOC101060439 /// RAP1B / RFU, RFX7 / Fold change vs veh, RFX7 / RFU, GTPBP10 / Fold change vs veh, GTPBP10 / RFU, CNEP1R1 / Fold change vs veh, CNEP1R1 / RFU, BIVM-ERCC5 /// ERCC5 / Fold change vs veh, BIVM-ERCC5 /// ERCC5 / RFU, ILF3 / Fold change vs veh, ILF3 / RFU 11762660_at / Fold change /veh 11762660_at / RFU VCAN (11757783_s_at) / Fold change /veh VCAN (11757783_s_at) / RFU DDX43 (11728927_at) / Fold change /veh DDX43 (11728927_at) / RFU KRT8 (11758188_x_at) / Fold change /veh KRT8 (11758188_x_at) / RFU NKD1 (11759106_at) / Fold change /veh NKD1 (11759106_at) / RFU SRD5A1 (11742802_a_at) / Fold change /veh SRD5A1 (11742802_a_at) / RFU TPSAB1 /// TPSB2 (11721975_s_at) / Fold change /veh TPSAB1 /// TPSB2 (11721975_s_at) / RFU GSTM3 (11746129_a_at) / Fold change /veh GSTM3 (11746129_a_at) / RFU IL23R (11737362_x_at) / Fold change /veh IL23R (11737362_x_at) / RFU TMEM51 (11727254_a_at) / Fold change /veh TMEM51 (11727254_a_at) / RFU PIWIL2 (11732686_x_at) / Fold change /veh PIWIL2 (11732686_x_at) / RFU ORM1 (11744905_x_at) / Fold change /veh ORM1 (11744905_x_at) / RFU CCDC152 (11743942_at) / Fold change /veh CCDC152 (11743942_at) / RFU ECM1 (11717891_a_at) / Fold change /veh ECM1 (11717891_a_at) / RFU IL23R (11748794_a_at) / Fold change /veh IL23R (11748794_a_at) / RFU TNFAIP8L3 (11732012_x_at) / Fold change /veh TNFAIP8L3 (11732012_x_at) / RFU MBOAT4 (11741988_at) / Fold change /veh MBOAT4 (11741988_at) / RFU 11764193_at / Fold change /veh 11764193_at / RFU TMEM53 (11763286_at) / Fold change /veh TMEM53 (11763286_at) / RFU MAGEB2 (11727129_at) / Fold change /veh MAGEB2 (11727129_at) / RFU TMEM200A (11744735_a_at) / Fold change /veh TMEM200A (11744735_a_at) / RFU CCDC152 (11751479_a_at) / Fold change /veh CCDC152 (11751479_a_at) / RFU FAM211A (11726209_a_at) / Fold change /veh FAM211A (11726209_a_at) / RFU RGS16 (11746705_a_at) / Fold change /veh RGS16 (11746705_a_at) / RFU VCAN (11755009_s_at) / Fold change /veh VCAN (11755009_s_at) / RFU RHOB (11743442_s_at) / Fold change /veh RHOB (11743442_s_at) / RFU RGS16 (11720943_a_at) / Fold change /veh RGS16 (11720943_a_at) / RFU RGS16 (11720944_at) / Fold change /veh RGS16 (11720944_at) / RFU, VPS4B / Fold change vs veh, VPS4B / RFU, CREB1 / Fold change vs veh, CREB1 / RFU, DNAJC13 / Fold change vs veh, DNAJC13 / RFU, GNAQ / Fold change vs veh, GNAQ / RFU, CDK5R1 / Fold change vs veh, CDK5R1 / RFU, ZRANB3 / Fold change vs veh, ZRANB3 / RFU, CUL4A / Fold change vs veh, CUL4A / RFU, CCNY / Fold change vs veh, CCNY / RFU, UFL1 / Fold change vs veh, UFL1 / RFU, COG3 / Fold change vs veh, COG3 / RFU, DIAPH2 / Fold change vs veh, DIAPH2 / RFU, SKA2 / Fold change vs veh, SKA2 / RFU, AFF3 / Fold change vs veh, AFF3 / RFU, LMF1 / Fold change vs veh, LMF1 / RFU, IPO11 / Fold change vs veh, IPO11 / RFU, DFFB / Fold change vs veh, DFFB / RFU, FOXP1 / Fold change vs veh, FOXP1 / RFU, CARD8 / Fold change vs veh, CARD8 / RFU, STRN3 / Fold change vs veh, STRN3 / RFU, ADK / Fold change vs veh, ADK / RFU, RASSF2 / Fold change vs veh, RASSF2 / RFU, WIPF1 / Fold change vs veh, WIPF1 / RFU, LARP1B / Fold change vs veh, LARP1B / RFU, RASA1 / Fold change vs veh, RASA1 / RFU, RB1 / Fold change vs veh, RB1 / RFU, PPFIA1 / Fold change vs veh, PPFIA1 / RFU, MAT2A / Fold change vs veh, MAT2A / RFU, CCT5 / Fold change vs veh, CCT5 / RFU, WDR92 / Fold change vs veh, WDR92 / RFU, CUX1 / Fold change vs veh, CUX1 / RFU, TTC7A / Fold change vs veh, TTC7A / RFU, TMEM135 / Fold change vs veh, TMEM135 / RFU, DEPTOR / Fold change vs veh, DEPTOR / RFU, CPM / Fold change vs veh, CPM / RFU, DNAJB6 / Fold change vs veh, DNAJB6 / RFU, CACNA2D3 / Fold change vs veh, CACNA2D3 / RFU, DTX4 / Fold change vs veh, DTX4 / RFU, TFCP2 / Fold change vs veh, TFCP2 / RFU, GMCL1 /// GMCL1P1 / Fold change vs veh, GMCL1 /// GMCL1P1 / RFU, AEBP2 / Fold change vs veh, AEBP2 / RFU, SNHG1 /// SNORD22 /// SNORD25 /// SNORD26 /// SNORD27 /// SNORD28 /// SNORD29 /// SNORD31 / Fold change vs veh, SNHG1 /// SNORD22 /// SNORD25 /// SNORD26 /// SNORD27 /// SNORD28 /// SNORD29 /// SNORD31 / Fold change (Aza/veh), C12orf56 (ProbeSet 11735607_a_at) / Fold change (ACY-1035/veh), C12orf56 (ProbeSet 11735607_a_at) / Fold change (Aza/veh), FGFR1OP (ProbeSet 11751329_s_at) / Fold change (ACY-1035/veh), FGFR1OP (ProbeSet 11751329_s_at) / Fold change (Aza/veh), VPS36 (ProbeSet 11739960_a_at) / Fold change (ACY-1035/veh), VPS36 (ProbeSet 11739960_a_at) / RFU SYPL1 (11715823_x_at) / Fold change /veh SYPL1 (11715823_x_at) / RFU IGFBP7 (11715501_s_at) / Fold change /veh IGFBP7 (11715501_s_at) / RFU REEP3 (11722064_at) / Fold change /veh REEP3 (11722064_at) / RFU IGLL1 (11728026_x_at) / Fold change /veh IGLL1 (11728026_x_at): dose or concentration left out as unconfirmed
Conditions: ProbeSet 11755436_x_at; LIST B

## Nc1ccc(-c2cccs2)cc1NC(=O)c1ccc2c(c1)cc(C1CC1)n2CCN1CCOCC1 [ACY-1035]
  Fold change vs veh, ARID1A: 0.98
